Results on 22 compounds are retold here after patent publication US5510366A, “Indole derivatives, salts thereof, and congestive heart failure therapeutic agents comprising the same” (Kowa Co., Ltd., priority 1993, dated 1996).

One test deals with hind-leg blood flow. The experiment in a line: Action on hind-leg blood flow in anesthetized dogs. The test is classed as in vivo, Hybrid adult dogs. The conditions noted are these: 100 μg into femoral artery; for change in vivo at 0.1 mg: Canis lupus familiaris, read-out: Rate of blood flow increase (%). The method, then:
<Action on hind-leg blood flow in anesthetized dogs>
Hybrid adult dogs were anesthetized by intravenous injection of 30 mg/kg of sodium pentobarbital. After administration of heparin, an extracorporeal circulation circuit was formed in femoral artery. The blood flows at hind-legs were measured by fixing an electromagnetic blood flow meter probe in the circuit. The test compound at a dose of 100 μg was administered into femoral artery via a tube provided in the circuit. The results in Table 3 show the rate of blood flow increase.

The subject of the next test is atrium specimen. The experiment in a line: Inotropic action in atrium specimen and anti-chronotropic action in guinea pigs. Particulars: Cavia porcellus; guinea pig atrium; 10^-5 M; "light atrium", left atrium stimulated at 1 Hz; read-out: Rate contraction increase (%). The protocol:
<Inoropic action in atrium specimen and anti-chronotropic action in guinea pigs>
After bruising on the head, guinea pigs were dehematized by sectioning carotid arteries and their heart was enucleated. Right and left atriums were taken out. These atriums were suspended in Krebs-Henseleit solution wherein 95% O2-5 % CO2 was bubbled. The tension was measured by a strain gauge and recorded via an amplifier. Pulsation at the right atrium was counted via a tachometer to determine the heart rate. Electric stimulation, twice a magnitude of the ceiling value at 1 Hz, 5 msec, was given to the left atrium. The test compound was administered at an interval of 5 minutes.
The results, shown in Table 2, indicate the rate of contraction increase of the light atrium at a dose of 10^-5 M of the test compound.

The next test has as its system ventricular fibrillation. The experiment in a line: Antiarrhythmic action against chloroform in mice (suppression of ventricular fibrillation). The test is classed as in vivo. The conditions noted are these: Mus musculus, 20 min, 20 minutes before chloroform, read-out: Rate of suppression (%) of ventricular fibrillation. The method, then:
<Antiarrhythmic action against chloroform in mice>
A test compound was administered to mice at a dose of 100 mg/kg. After 20 minutes, mice were placed in a pot filled with chloroform. Mice were taken out immediately after respiratory arrest. Electrocardiogram was recorded at the 11th induction, and ventricular tachycardia, ventricular fibrillation, and the time until cardiac arrest were measured.

Structures can show the parent of a compound that is named as a salt.

In the case of `Cc1cc2c(c3c1NC(=O)C3(C)C)O[C@@H](CN)[C@@H]2C` (relative stereo) [Example 3 (5) (Former component), (2R*,3R*)-2-aminomethyl-2,3,7,8-tetrahydro-3,5,8,8-tetramethyl-6H-furo 2,3-e!indol-7-one.cndot.hydrochloride], the change in vivo at 0.1 mg with hind-leg blood flow came to 128%.
Consider `CC[C@H]1c2cc(C)c3c(c2O[C@H]1CN)C(C)(C)C(=O)N3` (relative stereo) [Example 7 (6)(b), (2R* ,3S*)-2-aminomethyl-3-ethyl-2,3,7,8-tetrahydro-5,8,8-trimethyl-6H-furo 2,3-e!indol-7-one.cndot.hydrochloride], for which, in the test on atrium specimen, the activation at 10 µM was 27%.
`Cc1cc2c(c3c1NC(=S)C3(C)C)O[C@@H](CN)[C@@H]2C` (relative stereo) [Example 35, (2R*,3R*)-2-aminomethyl-2,3,7,8-tetrahydro-3,5,8,8-tetramethyl-6H-furo 2,3-e!indol-7-thione.cndot.hydrochloride]: in the test on ventricular fibrillation, the inhibition in vivo at 100 mg/kg came out at 100%.
As for `Cc1cc2c(c3c1NC(=O)C3(C)C)O[C@@](C)(CN)[C@@H]2C` (relative stereo) [Example 55 (B isomer), (2R*,3R*)-2-aminomethyl-2,3,5,8,8-pentamethyl-2,3,7,8-tetrahydro-6H-furo 2 ,3-e!indol-7one.cndot.hydrochloride], the inhibition in vivo at 30 mg/kg in the test on ventricular fibrillation (Dose: 30 mg/kg) came to 100%. In addition, the activation at 10 µM in the test with atrium specimen was determined as 24%. Moreover, the change in vivo at 0.1 mg with hind-leg blood flow came to 55%.
Consider `Cc1cc2c(c3c1NC(=O)C3(C)C)OC(CN)C2` (centres unmarked) [Example 1 (9), 2-Aminomethyl-2,3,7,8-tetrahydro-5,8,8-trimethyl-6H-furo 2,3-e!indol-7-onehydrochloride], for which the activation at 10 µM in the test on atrium specimen is 13%.
Turning to `Cc1cc2c(c3c1NC(=O)C3(C)C)OC(CN)C2.Cl` (centres unmarked) [Example 1 (a), 2-Aminomethyl-2,3,7,8-tetrahydro-5,8,8-trimethyl-6H-furo 2,3-e!indol-7-onehydrochloride], in the test on hind-leg blood flow, the “Rate of blood flow increase (%)” value amounted to 192%.
Take `Cc1cc2c(c3c1NC(=O)C3(C)C)OC(C)(CN)C2` (centres unmarked) [Example 2 (8), 2-Aminomethyl-2,3,7,8-tetrahydro-2,5,8,8-tetramethyl-6H-furo 2,3-e!indol-7-one.cndot.hydrochloride]: in the test on atrium specimen, the activation at 10 µM stood at 23%.
On to `Cc1cc2c(c3c1NC(=O)C3(C)C)OCC2CN` (centres unmarked) [Example 13 (3), 3-Aminomethyl-2,3,7,8-tetrahydro-5,8,8-trimethyl-6H-furo 2,3-e!indol-7-one.cndot.hydrochloride], for which the change in vivo at 0.1 mg in the test on hind-leg blood flow came out at 55%.
Turning to `CNCC1Cc2cc(C)c3c(c2O1)C(C)(C)C(=O)N3` (centres unmarked) [Example 14, 2-Methylaminomethyl-2,3,7,8-tetrahydro-5,8,8-trimethyl-6H-furo 2,3-e!indol-7-one.cndot.hydrochloride], the activation at 10 µM in the test with atrium specimen was determined as 20%.
Take `Cc1cc2c(c3c1NC(=O)C3(C)C)OC(CNCc1ccccc1)C2` (centres unmarked) [Example 15, 2-Benzylaminomethyl-2,3,7,8-tetrahydro-5,8,8-trimethyl-6H-furo 2,3-e!indol-7-one.cndot.hydrochloride]: the inhibition in vivo at 100 mg/kg in the test with ventricular fibrillation stood at 100%.
Consider `Cc1cc2c(c3c1NC(=O)C3(C)C)OC(Cn1ccnc1)C2` (centres unmarked) [Example 16, 2-(1-Imidazolyl)methyl-2,3,7,8-tetrahydro-5,8,8-trimethyl-6H-furo 2,3-e!indol-7-one.cndot.hydrochloride], for which the inhibition in vivo at 100 mg/kg in the test with ventricular fibrillation came out at 90%. Besides, the change in vivo at 0.1 mg in the test on hind-leg blood flow amounted to 90%.
Consider `Cc1cc2c(c3c1NC(=O)C3(C)C)OC(CN(C)C)C2` (centres unmarked) [Example 17, 2-Dimethylaminomethyl-2,3,7,8-tetrahydro-5,8,8-trimethyl-6H-furo 2,3-e!indol-7-one.cndot.hydrochloride], for which the inhibition in vivo at 100 mg/kg with ventricular fibrillation amounted to 100%.
As for `CCCCNCC1Cc2cc(C)c3c(c2O1)C(C)(C)C(=O)N3` (centres unmarked) [Example 18, 2-n-Butylaminomethyl-2,3,7,8-tetrahydro-5,8,8-trimethyl-6H-furo 2,3-e!indol-7-one.cndot.hydrochloride], the change in vivo at 0.1 mg in the test with hind-leg blood flow came to 145%.
Regarding `Cc1cc2c(c3c1NC(=O)C3(C)C)OC(CN1CCCCC1)C2` (centres unmarked) [Example 19, 2-(1-Piperidinyl)methyl-2,3,7,8-tetrahydro-5,8,8-trimethyl-6H-furo 2,3-e!in dol-7-one.cndot.hydrochloride], in the test with atrium specimen, the activation at 10 µM was determined as 28%.
For `Cc1cc2c(c3c1NC(=O)C3(C)C)OC(CN1CCN(Cc3ccccc3)CC1)C2` (centres unmarked) [Example 20, 2-(4-Benzyl-1-piperadinyl)methyl-2,3,7,8-tetrahydro-5,8,8-trimethyl-6H-furo 2,3-e!indol-7-one.cndot.dihydrochloride], in the test with hind-leg blood flow, the change in vivo at 0.1 mg is 96%.
Turning to `Cc1cc2c(c3c1NC(=O)C3(C)C)OC(CN1CCNCC1)C2` (centres unmarked) [Example 22, 2-(1-Piperadinyl)methyl-2,3,7,8-tetrahydro-5,8,8-trimethyl-6H-furo 2,3-e!in dol-7-one.cndot.dihydrochloride], the change in vivo at 0.1 mg in the test on hind-leg blood flow worked out at 121%.
The same measure, in the same setting: next, `COc1ccc(C(=O)N2CCN(CC3Cc4cc(C)c5c(c4O3)C(C)(C)C(=O)N5)CC2)cc1OC` (centres unmarked) [Example 23, 2-4-(3,4-dimethoxybenzoyl)-1-piperadinyl!methyl-2,3,7,8-tetrahydro-5,8,8-trimethyl-6H-furo 2,3-e!indol-7-one.cndot.hydrochloride]: 81%.
As to `CCCCCCc1cc2c(c3c1NC(=O)C3(C)C)OC(CN)C2` (centres unmarked) [Example 25 (9), 2-Aminomethyl-8,8-dimethyl-5-n-hexyl-2,3,7,8-tetrahydro-6H-furo 2,3-e!indol-7-one.cndot.hydrochloride], the inhibition in vivo at 100 mg/kg with ventricular fibrillation worked out at 100%. In the test on atrium specimen, the activation at 10 µM was 46%.
As to `CCc1cc2c(c3c1NC(=O)C3(C)C)OC(CN)C2` (centres unmarked) [Example 26 (6), 2-Aminomethyl-8,8-dimethyl-5-ethyl-2,3,7,8-tetrahydro-6H-furo 2,3-e!indol-7-one.cndot.hydrochloride], the change in vivo at 0.1 mg in the test on hind-leg blood flow is 216%.
Take `CCCCc1cc2c(c3c1NC(=O)C3(C)C)OC(CN)C2` (centres unmarked) [Example 28 (9)HCl, 2Aminomethyl-5-n-butyl-8,8-dimethyl-2,3,7,8-tetrahydro-6H-furo 2,3-e!indol-7-one.cndot.hydrochloride]: in the test with ventricular fibrillation, the inhibition in vivo at 100 mg/kg came out at 90%.
For the compound `Cc1c(C)c2c(c3c1CC(CN)O3)C(C)(C)C(=O)N2` (centres unmarked) [Example 30 (8)HCl, 2-Aminomethyl-2,3,7,8-tetrahydro-4,5,8,8-tetramethyl-6H-furo 2,3-e!indol-7-one.cndot.hydrochloride], the activation at 10 µM with atrium specimen turned out to be 28%.
With `CCOC(=O)c1cc2c3c(ccc2[nH]1)CC(CN)O3` (centres unmarked) [Example 47 (5), 2-Aminomethyl-2,3-dihydro-7-ethoxycarbonyl-6H-furo 2,3-e!indole.cndot.hydrochloride], the inhibition in vivo at 100 mg/kg with ventricular fibrillation amounted to 90%.
